The results in this text go back to publication PMC6179904 (Developmental Cell, 2018).

The assay relates to Jurkat T-cells. The format is cell-based, human.

Each structure is given as a SMILES string.

In the case of `CCOC(=O)N1CCC(Nc2c(NCCN3CCN(c4cccc(C(F)(F)F)c4)CC3)c(=O)c2=O)CC1` [squarunkin A], the “LCK localization ratio (LR) at the immune synapse” value is reported as 0.94.
For `Nc1ncnc2c1c(-c1ccc(Oc3ccccc3)cc1)cn2C1CCCC1` [LCK inhibitor (CAS 213743-31-8)], the “LCK localization ratio (LR) at the immune synapse” value is reported as 1.05.
